Key:
[1] = tested on: HIV-1 viral constructs Q60, K-60, and V-18 in MT-4 T-lymphoid cells; format: cell-based; conditions: concentration reducing spread of infection by at least 95%; MT-4 cells, 4 days postinfection
Method: Inhibition of the spread of HIV in cell culture was measured according to Nunberg et al., J. Virol. […] In this assay, MT-4 T-lymphoid cells were infected with HIV-1 (wild-type, unless otherwise indicated) by using a predetermined inoculum, and cultures were incubated for 24 h. At this time, ≦1% of the cells were positive by indirect immunofluorescence. Cells were then extensively washed and distributed into 96-well culture dishes. Serial twofold dilutions of inhibitor were added to the wells, and cultures were continued for 3 additional days. At 4 days postinfection, 100% of the cells in control cultures were infected. HIV-1 p24 accumulation was directly correlated with virus spread. The cell culture inhibitory concentration was defined as the inhibitor concentration in nanomoles/liter which reduced the spread of infection by at least 95%, or CIC95.

[2] = tested on: HIV; conditions: HIV-infected patients; in combination with nucleoside reverse transcriptase inhibitors; cited from earlier work

CC(C)(C)NC(=O)[C@@H]1CN(Cc2cccnc2)CCN1C[C@@H](O)C[C@@H](Cc1ccccc1)C(=O)N[C@H]1c2ccccc2C[C@H]1O [indinavir]
CIC95 against the viral constructs Q60, K-60, and V-18 [1]: greater than 1000 nM
reducing HIV viral loads and increasing CD4 cell counts [2]: highly effective
